Patent US20130143742A1, “HERBICIDAL COMPOSITION” (SUMITOMO CHEMICAL COMPANY, LIMITED, priority 2011, published 2013)
Structures can show the parent of a compound that is named as a salt.

What was measured:
[1] = test system: barnyardgrass (Echinochloa crus-galli); assay: Example 4: herbicidal activity, soil treatment, weed sown 9 days after treatment; assay type: in vivo; conditions: score 0 to 100; 1,000 g/ha; 29 days after the chemical treatment (20 days after sowing)
Experimental: (§1) Plastic pots each having a diameter of 24 cm and a height of 21 cm were filled with the soil. A water dilution of a glyphosate potassium salt (liquid formulation containing 48% of a glyphosate potassium salt, manufactured by Nissan Chemical Industries, Ltd. under the trade name of Roundup Maxload) was prepared. A mixed solution of a water dilution of a flumioxazin water dispersible granule (water dispersible granule containing 51% of flumioxazin, manufactured by Valent USA Corporation under the trade name of Valor SX) and a water dilution of a saflufenacil was prepared. A mixed solution of a water dilution of a glyphosate potassium salt, a water dilution of a flumioxazin water dispersible granule and a water dilution of Saflufenacil was prepared. Each of the solutions thus prepared above was uniformly sprayed over the pots using a sprayer in an amount of 500 L/ha. The water dilution of saflufenacil was prepared by dissolving a predetermined amount of saflufenacil in acetone containing 2% (w/v) of Tween 20 (surfactant, manufactured by Tokyo Chemical Industry Co., Ltd.) and diluting the solution with water so that the acetone concentration will be 10 volume %.
(§2) After a chemical treatment, the pots were put in a greenhouse. […]
Seedlings of the plant were cultivated in the greenhouse and, 29 days after the chemical treatment (20 days after sowing), herbicidal activity was evaluated.

[2] = test system: ivyleaf morningglory (Ipomoea hederacea); assay: Example 3: herbicidal activity, soil treatment, weed sown 21 days after treatment; assay type: in vivo; conditions: score 0 to 100; 20 g/ha; 45 days after the chemical treatment (24 days after sowing)
Experimental: as §1, with “of saflufenacil” for “of a glyphosate potassium salt (liquid formulation containing 48% of a glyphosate potassium salt, manufactured by Nissan Chemical Industries, Ltd. under the trade name of Roundup Maxload)”, “a glyphosate potassium salt (liquid formulation containing 48% of a glyphosate potassium salt, manufactured by Nissan Chemical Industries, Ltd. under the trade name of Roundup Maxload)” for “a saflufenacil”, “of saflufenacil,” for “of a glyphosate potassium salt,”, “of a glyphosate potassium salt” for “of Saflufenacil”
as §2
Seedling of the plant were cultivated in the greenhouse and, […] after the chemical treatment (24 days after sowing), herbicidal activity was evaluated.

SMILES	Herbicidal activity Barnyardgrass [1]	Herbicidal activity Ivyleaf morningglory [2]
O=C(O)CNCP(=O)(O)O [Glyphosate potassium salt, glyphosate-potassium]	0	
CC(C)N(C)S(=O)(=O)NC(=O)c1cc(-n2c(=O)cc(C(F)(F)F)n(C)c2=O)c(F)cc1Cl [Saflufenacil, N′-{2-chloro-4-fluoro-5-[1,2,3,6-tetrahydro-3-methyl-2,6-dioxo-4-(trifluoromethyl)pyrimidin-1-yl]benzoyl}-N-isopropyl-N-methylsulfamide]		45
